pIC50: −log10 of the molar value. Read-outs that look alike come from different tables or passages of the source.
Tests used:
[1] = target: T1, human EGFR (d746-750/C797S) (Homo sapiens, UniProt P00533, C797S/DEL746-750); experiment: Inhibitory activity against EGFR (d746-750/C797S) kinase; assay type: biochemical; details: Test Example 1, Table 4; ATP 14 μM, 60 minutes
T1 construct: purchased SignalChem
Method in brief: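 Recombinant human EGFR d746-750/C797S in 13.5 mM Tris pH 7.5 with 2 mM DTT and 0.009% Tween-20. Reaction ran 60 min with 14 μM ATP, 20 mM MgCl2 and 12.5 mM MnCl2, stopped by 40 mM EDTA. IC50 in nM.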

human EGFR (WT) = target: T2, human EGFR (WT) (Homo sapiens, UniProt P00533); experiment: Inhibitory activity against EGFR (WT) kinase; assay type: biochemical; details: Test Example 1, Table 6; ATP 1.5 μM
T2 construct: purchased Carna Biosciences Inc., Japan
T2 sequence (P00533 25-1210): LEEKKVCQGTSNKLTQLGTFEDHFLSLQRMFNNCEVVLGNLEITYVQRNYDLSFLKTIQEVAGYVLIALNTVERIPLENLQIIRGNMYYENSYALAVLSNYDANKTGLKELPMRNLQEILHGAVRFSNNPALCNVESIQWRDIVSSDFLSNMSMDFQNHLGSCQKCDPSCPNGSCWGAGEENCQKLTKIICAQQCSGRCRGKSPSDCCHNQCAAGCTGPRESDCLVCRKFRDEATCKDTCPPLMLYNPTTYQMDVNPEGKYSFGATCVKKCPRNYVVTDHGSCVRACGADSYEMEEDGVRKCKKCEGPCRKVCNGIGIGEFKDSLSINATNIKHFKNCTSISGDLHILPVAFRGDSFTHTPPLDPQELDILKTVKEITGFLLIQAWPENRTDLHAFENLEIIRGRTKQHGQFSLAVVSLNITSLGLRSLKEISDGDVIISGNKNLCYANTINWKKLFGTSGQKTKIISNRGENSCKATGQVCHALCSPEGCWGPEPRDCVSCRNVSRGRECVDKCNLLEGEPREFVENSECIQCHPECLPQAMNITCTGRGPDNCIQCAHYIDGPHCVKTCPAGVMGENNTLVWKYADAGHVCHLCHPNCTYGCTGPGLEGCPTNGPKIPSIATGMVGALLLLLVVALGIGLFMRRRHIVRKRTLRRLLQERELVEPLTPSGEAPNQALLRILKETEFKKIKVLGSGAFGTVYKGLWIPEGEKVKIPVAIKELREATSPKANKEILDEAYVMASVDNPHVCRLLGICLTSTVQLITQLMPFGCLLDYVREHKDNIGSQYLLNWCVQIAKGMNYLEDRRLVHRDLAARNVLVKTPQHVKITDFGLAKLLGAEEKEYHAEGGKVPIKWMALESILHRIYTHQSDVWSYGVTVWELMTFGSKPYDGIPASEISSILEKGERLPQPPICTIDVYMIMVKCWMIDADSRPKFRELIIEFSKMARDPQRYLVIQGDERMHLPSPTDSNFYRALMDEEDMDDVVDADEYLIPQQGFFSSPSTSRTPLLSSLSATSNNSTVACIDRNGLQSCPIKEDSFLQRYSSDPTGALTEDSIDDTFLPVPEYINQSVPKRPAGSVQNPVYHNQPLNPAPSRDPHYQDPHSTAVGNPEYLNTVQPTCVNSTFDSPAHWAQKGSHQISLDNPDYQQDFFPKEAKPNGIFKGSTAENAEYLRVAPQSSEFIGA
Method in brief: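 Purified recombinant human wild-type EGFR kinase, with ATP at 1.5 μM final. Compound inhibition of kinase activity read out and fitted to give IC50 (nM).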

[2] = target: Ba/F3-EGFR (d746-750/T790M/C797S) (Homo sapiens, UniProt P00533, DEL746-750/T790M/C797S, cells depend on it); experiment: Growth inhibition of cell line expressing EGFR (d746-750/T790M/C797S); assay type: cell-based, mouse; details: read-out: BaF3_EGFR (d746-750/T790M/C797S) IC50 value
Sequence of Ba/F3-EGFR (d746-750/T790M/C797S) (P00533 with tags, fused parts or gaps DEL746-750/T790M/C797S): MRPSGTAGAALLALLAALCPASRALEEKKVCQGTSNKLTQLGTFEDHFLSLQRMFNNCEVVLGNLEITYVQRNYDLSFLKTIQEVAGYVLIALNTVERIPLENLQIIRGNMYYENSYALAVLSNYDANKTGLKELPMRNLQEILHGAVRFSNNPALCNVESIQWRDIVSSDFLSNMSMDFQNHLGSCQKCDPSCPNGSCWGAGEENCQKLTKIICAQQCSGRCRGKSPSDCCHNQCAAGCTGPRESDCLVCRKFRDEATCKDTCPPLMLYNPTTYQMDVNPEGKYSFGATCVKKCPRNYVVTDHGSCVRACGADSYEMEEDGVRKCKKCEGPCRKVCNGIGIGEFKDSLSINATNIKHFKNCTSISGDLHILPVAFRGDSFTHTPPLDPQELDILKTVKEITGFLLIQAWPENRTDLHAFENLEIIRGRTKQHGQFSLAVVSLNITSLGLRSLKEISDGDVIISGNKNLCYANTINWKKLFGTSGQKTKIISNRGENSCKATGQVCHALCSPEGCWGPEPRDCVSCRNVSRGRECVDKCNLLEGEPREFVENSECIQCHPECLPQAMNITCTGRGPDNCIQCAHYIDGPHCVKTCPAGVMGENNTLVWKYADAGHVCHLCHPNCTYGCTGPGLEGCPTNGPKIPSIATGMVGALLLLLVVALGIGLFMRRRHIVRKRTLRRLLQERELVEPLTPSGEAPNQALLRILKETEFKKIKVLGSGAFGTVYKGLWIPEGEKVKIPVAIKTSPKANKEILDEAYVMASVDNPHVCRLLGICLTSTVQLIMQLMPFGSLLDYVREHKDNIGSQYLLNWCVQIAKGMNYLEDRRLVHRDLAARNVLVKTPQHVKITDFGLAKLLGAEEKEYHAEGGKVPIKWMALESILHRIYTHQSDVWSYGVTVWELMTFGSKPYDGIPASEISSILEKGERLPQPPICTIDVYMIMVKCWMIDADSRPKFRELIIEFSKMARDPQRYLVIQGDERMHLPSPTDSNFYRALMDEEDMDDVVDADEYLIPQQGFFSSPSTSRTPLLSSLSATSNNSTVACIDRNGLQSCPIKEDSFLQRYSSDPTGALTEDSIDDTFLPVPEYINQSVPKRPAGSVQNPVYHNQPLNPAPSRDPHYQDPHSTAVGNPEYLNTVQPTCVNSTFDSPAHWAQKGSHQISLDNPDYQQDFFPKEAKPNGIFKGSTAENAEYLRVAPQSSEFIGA
From the text: Test for inhibitory activity against the growth of cell lines expressing wild-type and mutated EGFRs (in vitro)
(1) Mouse cell line Ba/F3-EGFR (d746-750/T790M/C797S) transfected with and stably expressing EGFR (d746-750/T790M/C797S), mouse cell Ba/F3-EGFR (L858R/T790M/C797S) transfected with and stably expressing EGFR (L858R/T790M/C797S), and mouse cell line Ba/F3-EGFR (WT) transfected with and stably expressing wild-type EGFR were each suspended in RPMI-1640 cell culture medium (RPMI-1640, 10% FBS, 100 unit/ml penicillin, 0.1 mg/ml streptomycin). In the case of the mouse cell line Ba/F3-EGFR (WT), RPMI-1640 cell culture medium containing EGF at a final concentration of 50 ng/ml was used to suspend this cell line. It should be noted that the mouse cell line Ba/F3-EGFR (d746-750/T790M/C797S) transfected with and stably expressing EGFR (d746-750/T790M/C797S), the mouse cell line Ba/F3-EGFR (L858R/T790M/C797S) transfected with and stably expressing EGFR (L858R/T790M/C797S) and the mouse cell line Ba/F3-EGFR (WT) transfected with and stably expressing wild-type EGFR were prepared by using nucleotide sequences encoding the proteins of SEQ ID NOs: 1 and 2 in accordance with Test Example 1 in WO2018/079310, These cell suspensions were seeded in wells of 96-well flat -bottomed plates. The compounds of the present invention were dissolved in DMSO, and serial dilutions of these test compounds were prepared with DMSO (1000-fold of the final concentration). Each test compound solution in DMSO or DMSO alone was diluted with RPMI-1640 cell culture medium for each cell line, and this dilution was added to wells of the cell culture plate such that the final concentration of DMSO was 0.1%, followed by culture at 37° C. for 3 days in a 5% carbon dioxide gas-containing incubator. Before and after addition of each test compound solution in DMSO, the number of cells was counted using the CellTiter-Glo® system (Promega) on the basis of the protocol recommended by Promega.
In each cell line, the rate of cell growth inhibition was calculated according to the equation shown below in wells to which each test compound was added at different concentrations. Moreover, the inhibition rate at each concentration was plotted for each test compound, and the concentration of each test compound required to give 50% cell survival rate, i.e., IC50 (nM) was determined by curve fitting software XLfit (IDBS).
Cell survival rate (%)=T/C×100
T: emission intensity in a well cultured for 3 days after addition of a test compound solution
C: emission intensity in a well cultured for 3 days after addition of DMSO
In accordance with the same procedures as shown in Test Example 2, the compounds of the present invention were tested for their inhibitory activity against the growth of the cell hoes expressing wild-type and mutated EGFRs.

[3] = Test Example 4, Table 13, same procedures as Test Example 2
[4] = Test Example 2, Table 7, culture 3 days, CellTiter-Glo

T1 sequence (P00533 with tags, fused parts or gaps DEL746-750/C797S): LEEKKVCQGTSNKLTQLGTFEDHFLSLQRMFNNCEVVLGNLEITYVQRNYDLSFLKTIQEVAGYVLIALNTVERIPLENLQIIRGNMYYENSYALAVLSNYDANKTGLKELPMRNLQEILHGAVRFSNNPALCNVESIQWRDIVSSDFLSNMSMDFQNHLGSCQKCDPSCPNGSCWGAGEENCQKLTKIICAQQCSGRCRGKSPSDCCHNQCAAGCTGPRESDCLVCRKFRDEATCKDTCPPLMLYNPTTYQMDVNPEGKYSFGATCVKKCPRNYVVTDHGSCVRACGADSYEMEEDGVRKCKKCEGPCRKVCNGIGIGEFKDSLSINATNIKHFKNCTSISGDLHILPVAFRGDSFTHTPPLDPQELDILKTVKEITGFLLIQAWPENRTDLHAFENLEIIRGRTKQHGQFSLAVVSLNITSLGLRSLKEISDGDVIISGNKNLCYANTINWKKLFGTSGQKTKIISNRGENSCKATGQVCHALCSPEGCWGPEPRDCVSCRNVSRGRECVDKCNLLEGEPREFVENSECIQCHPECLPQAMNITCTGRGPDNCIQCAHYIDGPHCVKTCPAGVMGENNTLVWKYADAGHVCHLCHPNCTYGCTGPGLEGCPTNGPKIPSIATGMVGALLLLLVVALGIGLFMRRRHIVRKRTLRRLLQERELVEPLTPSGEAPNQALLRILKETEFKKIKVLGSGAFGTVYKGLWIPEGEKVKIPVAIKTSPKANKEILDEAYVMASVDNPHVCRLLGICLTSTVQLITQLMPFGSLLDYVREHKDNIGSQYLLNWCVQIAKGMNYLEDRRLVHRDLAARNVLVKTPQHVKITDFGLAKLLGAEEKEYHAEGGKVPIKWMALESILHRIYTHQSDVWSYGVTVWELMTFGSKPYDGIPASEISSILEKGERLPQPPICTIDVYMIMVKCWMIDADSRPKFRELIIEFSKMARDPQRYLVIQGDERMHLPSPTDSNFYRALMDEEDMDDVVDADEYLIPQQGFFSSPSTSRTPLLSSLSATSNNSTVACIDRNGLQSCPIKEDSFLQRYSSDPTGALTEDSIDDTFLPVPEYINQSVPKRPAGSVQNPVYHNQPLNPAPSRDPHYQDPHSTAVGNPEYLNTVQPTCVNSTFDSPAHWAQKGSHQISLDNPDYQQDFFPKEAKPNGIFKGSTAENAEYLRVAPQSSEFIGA

Row | Structure (SMILES) | pIC50 [1] | pIC50 (human EGFR (WT)) | GI50 [2, 3] [nM] | GI50 [2, 4] [nM]
1 | C#Cc1c(-c2cnc3ccccc3c2)c2c(N)ncnc2n1C12CCC(NC(=O)c3ccncc3)(CC1)C2 [Example 43] | 9.14 | 8.77 |  | 57
2 | C=CC(=O)N1CC[C@@H](n2cc(-c3cnc4ccccc4c3)c3c(N)ncnc32)C1 [Comparative Example A, (R)-1-(3(4-Amino-5-(quinolin-3-yl)-7H-pyrrolo[2,3-d]pyrimidin-7-yl)pyrrolidin-1-yl) -prop-2-en-1-one, reference compound] | 6.58 | 8.80 |  | 3660
3 | C#Cc1c(-c2cnc3ccccc3c2)c2c(N)ncnc2n1C12CCC(NC(=O)c3ccc4ncnn4c3)(CC1)C2 [Example 16, N-(4-(4-Amino-6-ethynyl-5-(quinolin-3-yl)-7H-pyrrolo[2,3-d]pyrimidin-7-yl)bicyclo-[2.2.1]heptan-1-yl)-[1.2.4]triazolo[1,5-a]pyrimidin-6-carboxamide] | 9.35 | 9.28 | 32 | 
4 | C#Cc1c(-c2cnc3ccccc3c2)c2c(N)ncnc2n1C12CCC(N3CCOCC3)(CC1)C2 [Example 9, 6-Ethynyl-7-(4-morpholinobicyclo[2.2.1]heptan-1-yl)-5-(quinolin-3-yl)-7H-pyrrolo[2,3-d]pyrimidine-4-amine] | 9.44 | 8.59 | 59 | 

Next, values leading:

Row | pIC50 [1] | pIC50 (human EGFR (WT)) | GI50 [2, 3] [nM] | GI50 [2, 4] [nM] | Structure (SMILES)
5 | 9.14 | 9.10 | 30 |  | C#Cc1c(-c2cnc3ccccc3c2)c2c(N)ncnc2n1C12CCC(NC(=O)c3ccno3)(CC1)C2 [Example 44]
6 | 9.17 | 8.72 |  | 42 | C#Cc1c(-c2cnc3ccccc3c2)c2c(N)ncnc2n1C12CCC(NC(=O)c3cccnc3)(CC1)C2 [Example 45]
